One experiment concerns the target T1, AtITPK1 (Arabidopsis thaliana, UniProt Q9SBA5).
T1 construct: gene ITPK1; His tag with 3C cleavage implied
T1 sequence (Q9SBA5 1-319): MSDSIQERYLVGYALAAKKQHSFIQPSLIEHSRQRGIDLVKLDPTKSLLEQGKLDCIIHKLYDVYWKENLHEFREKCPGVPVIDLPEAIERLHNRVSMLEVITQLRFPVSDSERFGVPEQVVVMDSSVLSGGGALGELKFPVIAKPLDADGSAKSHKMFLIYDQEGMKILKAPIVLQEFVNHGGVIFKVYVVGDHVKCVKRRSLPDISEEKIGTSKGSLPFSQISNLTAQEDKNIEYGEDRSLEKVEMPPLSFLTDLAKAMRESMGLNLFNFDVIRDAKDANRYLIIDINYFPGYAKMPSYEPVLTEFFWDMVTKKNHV
In words: phosphate release assay. Format: biochemical. Particulars: 1 mM ATP; 10 µM enzyme; no inositol phosphate.

Another experiment has as its target T2, AtITPK4 (Arabidopsis thaliana, UniProt O80568).
T2 construct: gene ITPK4; full-length; pOPINE, non-cleavable C-terminal 6xHis tag kept; Ni-NTA purified; HAD-like domain 1-150, ATP-grasp kinase domain from 151; no evidence of homo-oligomers
In words: HPLC kinase assay, substrate inhibition fit. The note with it: 1 mM Ins(1,4,6)P3; ATP 0-5 mM; 6 mM MgCl2; 20 mM HEPES pH 7.3; 25 °C; 3 µM enzyme; substrate inhibition at high ATP. Format: biochemical.

T2 sequence (O80568 whole entry, the tested form may be a part): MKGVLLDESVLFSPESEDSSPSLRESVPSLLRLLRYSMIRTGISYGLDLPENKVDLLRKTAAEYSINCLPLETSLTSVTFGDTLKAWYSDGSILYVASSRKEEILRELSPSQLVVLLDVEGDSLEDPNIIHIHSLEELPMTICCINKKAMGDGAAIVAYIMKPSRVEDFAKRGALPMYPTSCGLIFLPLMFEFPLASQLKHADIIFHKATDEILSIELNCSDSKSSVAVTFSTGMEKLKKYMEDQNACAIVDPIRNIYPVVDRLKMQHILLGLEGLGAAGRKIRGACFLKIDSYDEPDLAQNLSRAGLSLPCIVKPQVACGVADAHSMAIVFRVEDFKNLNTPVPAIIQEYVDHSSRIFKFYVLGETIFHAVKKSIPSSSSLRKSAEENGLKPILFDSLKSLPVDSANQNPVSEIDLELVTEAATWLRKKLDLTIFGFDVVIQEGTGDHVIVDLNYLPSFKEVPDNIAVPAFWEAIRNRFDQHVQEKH

On to `Nc1ncnc2c1ncn2[C@@H]1O[C@H](COP(=O)(O)OP(=O)(O)OP(=O)(O)O)[C@@H](O)[C@H]1O` [ATP], for which the phosphate release assay entry at AtITPK1 is “AtITPK1 showed much greater phosphate release from ATP in the absence of inositol phosphate substrate”. The same compound displayed a Ki at AtITPK4 of 3.3 mM.

These data come from paper PMC7614388, “Diversification in the inositol tris/tetrakisphosphate kinase (ITPK) family: crystal structure and enzymology of the outlier AtITPK4” (Biochemical Journal, 2023).
